Assays:
[1] = tested on: P. aeruginosa (strain PA14); assay: Checkerboard assay of potentiator-antibiotic pairs; format: cell-based, Pseudomonas aeruginosa; settings: for Antibiotic MIC with WD40 relative to clinical breakpoint: PA14, with WD40, breakpoints for Gram-positive species (EUCAST)
[2] = tested on: P. aeruginosa clinical isolates (BWH006, BWH012, BWH013, BWH021, BWH027); assay: Checkerboard assay of potentiator-antibiotic pairs in clinical isolates; format: cell-based, Pseudomonas aeruginosa; settings: for Antibiotic MIC with WD40 relative to clinical breakpoint: 10 μM WD40, MIC95, breakpoints for Gram-positive species (EUCAST); for MIC of antibiotic alone: range over isolates, Figure 6 names MIC95

Row | Structure (SMILES) | Antibiotic MIC with WD40 relative to clinical breakpoint [1] | Antibiotic MIC with WD40 relative to clinical breakpoint [2] | MIC of antibiotic alone [2] | MIC of antibiotic alone ([1]; PA14)
1 | CC(=O)O[C@H]1C[C@@]2(C)[C@@H](C[C@@H](O)[C@H]3[C@@]4(C)CC[C@@H](O)[C@@H](C)[C@@H]4CC[C@@]32C)/C1=C(\CCC=C(C)C)C(=O)O [fusidic acid] | clinical breakpoints were met | did not meet their clinical breakpoints | 512 to 1024 µg/mL | 
2 | CO[C@H]1/C=C/O[C@@]2(C)Oc3c(C)c(O)c4c(O)c(c(/C=N/N5CCN(C)CC5)c(O)c4c3C2=O)NC(=O)/C(C)=C\C=C\[C@H](C)[C@H](O)[C@@H](C)[C@@H](O)[C@@H](C)[C@H](OC(C)=O)[C@@H]1C [rifampin] | to the clinical breakpoint | below its clinical breakpoint | 8 to 16 µg/mL | 512 µg/mL
